Assay results reported in patent US20140235588A1, “SUBSTITUTED 1H-PYRAZOL-1,2,4-OXADIAZOLE DERIVATIVES AS SPHINGOSINE RECEPTOR MODULATORS” (Allergan, Inc., priority 2013, published 2014).

Molecular target: T1, human S1P1 receptor (Homo sapiens, UniProt P21453)
T1 construct: expressed in transfected cells; membranes used
Assay: GTP γ35S binding assay for S1P1 activity
Type: biochemical
Conditions: membranes of cells stably expressing the S1P1 receptor, agonist potency
Method: Compounds of the invention were tested for S1P1 activity using the GTP γ^35S binding assay. These compounds may be assessed for their ability to activate or block activation of the human S1P1 receptor in cells stably expressing the S1P1 receptor.
GTP γ^35S binding was measured in the medium containing (mM) HEPES 25, pH 7.4, MgCl2 10, NaCl 100, dithitothreitol 0.5, digitonin 0.003%, 0.2 nM GTP γ^35S, and 5 μg membrane protein in a volume of 150 μl. Test compounds were included in the concentration range from 0.08 to 5,000 nM unless indicated otherwise. Membranes were incubated with 100 μM 5′-adenylylimmidodiphosphate for 30 min, and subsequently with 10 μM GDP for 10 min on ice.
Drug solutions and membrane were mixed, and then reactions were initiated by adding GTP γ^35S and continued for 30 min at 25° C. Reaction mixtures were filtered over Whatman GF/B filters under vacuum, and washed three times with 3 mL of ice-cold buffer (HEPES 25, pH7.4, MgCl2 10 and NaCl 100). Filters were dried and mixed with scintillant, and counted for ^35S activity using a β-counter. Agonist-induced GTP γ^35S binding was obtained by subtracting that in the absence of agonist. Binding data were analyzed using a non-linear regression method. In case of antagonist assay, the reaction mixture contained 10 nM S1P in the presence of test antagonist at concentrations ranging from 0.08 to 5000 nM.

T1 sequence (P21453 whole entry): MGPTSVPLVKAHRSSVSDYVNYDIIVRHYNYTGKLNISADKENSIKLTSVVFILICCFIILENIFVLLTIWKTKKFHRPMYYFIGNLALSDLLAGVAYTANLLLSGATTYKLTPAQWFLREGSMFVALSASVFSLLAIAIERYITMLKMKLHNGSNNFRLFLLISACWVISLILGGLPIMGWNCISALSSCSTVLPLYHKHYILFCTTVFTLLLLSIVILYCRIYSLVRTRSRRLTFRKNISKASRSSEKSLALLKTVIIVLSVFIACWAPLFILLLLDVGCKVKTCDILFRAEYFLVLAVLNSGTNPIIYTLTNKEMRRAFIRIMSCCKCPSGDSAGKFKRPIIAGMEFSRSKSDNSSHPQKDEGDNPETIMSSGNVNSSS

EC50	Compound
32 nM	Cn1nc(-c2nc(-c3ccc(CNCCCP(=O)(O)O)cc3)no2)cc1-c1ccccc1 [Compound 1, [3-({4-[5-(1-Methyl-5-phenyl-1H-pyrazol-3-yl)-1,2,4-oxadiazol-3-yl]benzyl}amino)propyl]phosphonic acid]
658 nM	Cn1nc(-c2nc(-c3ccc(CNCCC(=O)O)cc3)no2)cc1-c1ccccc1 [Compound 2, 3-({4-[5-(1-methyl-5-phenyl-1H-pyrazol-3-yl)-1,2,4-oxadiazol-3-yl]benzyl}amino)propanoic acid]
